# Source: US20260306463A1, “SIK INHIBITORS TO TREAT CHRONIC KIDNEY DISEASE” (The General Hospital Corporation, priority 2023, published 2026)
# Entries after “also recorded” stand apart in the source; their conditions may differ.
# Tests used:
# [1] = system: human kidney organoids; test: P21, gammaH2AX and LTL immunostaining in cisplatin-injured human kidney organoids; type: cell-based; conditions: for gammaH2AX induction: cisplatin; for gammaH2AX induction / P21 expression: concurrent SK-124 (FIG. 9); for LTL-positive proximal tubule cells / P21 / gammaH2AX: dose response, five cisplatin cycles (FIG. 11); for P21 expression: indicated number of cisplatin cycles
# Description: FIG. 9. SK-124 treatment protects from cisplatin-induced P21 induction in human kidney organoids. Organoids were treated with the indicated number of cisplatin cycles in the presence of DMSO vehicle (top) or SK-124 (bottom). Organoids were then processed for P21 immunofluorescent microscopy.
# FIG. 11. SK-124 protects human kidney organoids from cisplatin injury in a dose-dependent manner. Organoids were treated with five cisplatin cycles in the presence of the indicated doses of SK-124. Subsequently, organoids were immunostained to reveal cellular composition and injury markers P21 (top panels) and gammaH2AX (bottom panels). […] Proximal tubule cells are labeled with LTL staining and are reduced by cisplatin treatment and restored by SK-124 co-treatment.
# (§1) For cisplatin induced injury, day 49 organoids were treated with 5 μM cisplatin in basal media after full media change. After 24 hours, full media exchanges were performed. This 24-hour treatment was performed twice a week, on day 52-53, day 56-57, day 59-60, and day 63-64 as well, for a total of five cisplatin treatments. Samples were obtained for RT-qPCR and immunostaining immediately following each 24-hour treatment with cisplatin, and from corresponding controls.
# (§2) Following the treatment, the organoids were collected and immediately fixed in 4% PFA in PBS for 1 hour at room temperature, submerged in 30% sucrose overnight at 4° C., then embedded in O.C.T. Compound (4585. Fisher HealthCare). Subsequently, […] frozen sections were prepared via cryo-sectioning by a cryostat. After 1 hr blocking at room temperature, the sections were treated overnight at 4° C. with primary antibodies in antibody dilution buffer (ADB) with biotinylated LTL (1:200, B-1325, Vector), rat anti-CDH1 (1:500, ab11512, Abcam), goat anti-PODXL (1:500, AF1658, R&D Systems), as well as the antibody of interest, either mouse anti-p21 (1:200, NBP2-43697, Novus Biologicals), or rabbit anti-γH2AX (1:100, 2577, Cell Signaling) antibodies. For the optimum labeling of LTL by biotin/streptavidin interaction, the Streptavidin/Biotin Blocking Kit (SP-2002, Vector Laboratories) was applied according to the manufacturer's instructions. After washing, the samples were stained for 1 hour at RT with the nuclear dye-SYTOX Blue (1:500. S 11348, Invitrogen) and the corresponding secondary antibodies in ADB such as streptavidin-AF750 (1:500, S21384, Invitrogen), donkey anti-rat IgG-AF594 (1:500, A21209, Invitrogen), donkey anti-goat IgG-AF555 (1:500, A21432, Invitrogen), and donkey anti-rabbit IgG-AF488 (1:500, A21206, Invitrogen) for γH2AX or donkey anti-mouse IgG-AF488 (1:500, A21202, Invitrogen) for p21 antibodies as well as mouse anti-Meisl/⅔ (1:200, sc-101850, SantaCruz) conjugated antibody, and slides were mounted with Vectashield antifade mounting medium (H1000, Vector Laboratories).
# Finally, the images were captured by the STELLARIS 8 confocal microscope (Leica Microsystems) using 25× water immersion objective lens. The mean diameters of the organoids were measured on the Leica Application Suite X (LAS X) software platform.
# [2] = system: human kidney organoids; test: cisplatin injury of human kidney organoids: immunostaining, organoid size; type: cell-based; conditions: intermittent cisplatin, 5 treatments; for proximal tubule cells: confocal microscopy
# Description: FIG. 7. SK-124 preserves human kidney organoid integrity in cisplatin injury model. Human kidney organoids derived from H9 embryonic stem cells were treated with intermittent cisplatin (5 separate treatments) based on published protocols along with the indicated agent. Organoids were cryo-sectioned and immuno-stained with the indicated markers. The top panels show low power images and the bottom panels focus on regions of proximal tubule cells. The graph measures the mean diameter of organoids in the control (no cisplatin), cisplatin+DMSO, and cisplatin+SK-124 treatment groups.
# BJFF human induced pluripotent stem cells (hPSCs) were maintained on Geltrexcoated (Thermo Fisher Scientific) plates using StemFit Basic04 Complete (Ajinomoto Co. Inc.) as previously reported(25). The cells were passaged weekly using Accutase (STEMCELL Technologies) for dissociation and Y27632 (Tocris) for adhesion. Directed differentiation of hPSCs into kidney organoids has been published elsewhere (29). Briefly, hPSCs were differentiated into metanephric mesenchyme cells on day 8 by a three-step directed differentiation protocol. Metanephric mesenchyme was transferred into suspension culture in 96-well ultralow adhesion plates (Coming) and further differentiated into kidney organoids, as previously reported(25). Quality control measures of SIX2 immunostaining on day 8 of differentiation and CDH1, LTL, PODXL, CD146, MEIS1/2/3, and SYTOX-blue staining on day 21 were performed on all batches of kidney organoids to limit batch-to-batch heterogeneity. Kidney organoids were maintained in 200 μl of basal media consisting of Advanced RPMI (Thermo Fisher Scientific) and GlutaMAX (Thermo Fisher Scientific) in 96-well plates, as previously reported. Media changes were conducted three times weekly with removal of 90 [l and addition of 100 μl of fresh basal media.
# as §1
# as §2, with “Laboratories). […]” for “Laboratories).”
SMILES,gammaH2AX induction [1],LTL-positive proximal tubule cells [1],P21 [1],gammaH2AX [1],P21 expression [1],proximal tubule cells [2],cisplatin-induced organoid atrophy [2],organoid cellularity and size in response to cisplatin injury [2]
"N.N.[Cl][Pt][Cl] [cisplatin, reference compound]",robust P21 (top) and gammaH2AX (bottom) induction,reduced; also recorded: loss of LTL-positive proximal tubule cells,robust cisplatin-induced P21 induction,induced,induces P21 expression; also recorded: robust P21 (top) and gammaH2AX (bottom) induction,proximal tubular loss,,
"CCc1nnc(-c2c(OC)cc(-c3cnc4cc(-c5cnn(C)c5)ccn34)cc2OC)o1 [SK-124, 2-[2,6-Dimethoxy-4-[7-(1-methylpyrazol-4-yl)imidazo[1,2-a]pyridin-3-yl]phenyl]-5-ethyl-1,3,4-oxadiazole]",markedly reduced,restored; also recorded: blocked by SK-124 treatment in a dose-dependent manner,reduced by SK-124 co-treatment in a dose-dependent manner; also recorded: blocked by SK-124 treatment in a dose-dependent manner,reduced by SK-124 co-treatment in a dose-dependent manner,markedly reduced,preserved proximal tubule cells,reduced cisplatin-induced organoid atrophy,preserves organoid cellularity and size
